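These data come from cells grown in 96-well plates and exposed to compound for 48 hours at five concentrations. The concentration for 50% growth inhibition is given as GI50.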 Calls of active or inactive are those of the source. No stated cut-off is given here; in the data, active = GI50 up to about 1.1 µM and inactive = higher.
Tests used:
Test in all cases: growth of human tumour cells (NCI), 48 h
[1] = test system: KM12
[2] = test system: HL-60
[3] = test system: SR
[4] = test system: NCI-H23
[5] = test system: NCI/ADR-RES
[6] = test system: PC-3
[7] = test system: SNB-75
[8] = test system: UACC-257
[9] = test system: SK-MEL-2
[10] = test system: EKVX
[11] = test system: OVCAR-8
[12] = test system: MOLT-4
[13] = test system: HCT-15
[14] = test system: A549
[15] = test system: SW-620
[16] = test system: SF-295
[17] = test system: HOP-62
[18] = test system: CCRF-CEM
[19] = test system: Malme-3M
[20] = test system: K562

CCOC(=O)c1nc2cc(C(F)(F)F)ccc2nc1Nc1ccc(OC)cc1
GI50 [1]: > 100 µM (inactive) | GI50 [2]: > 100 µM (inactive) | GI50 [3]: > 100 µM (inactive) | GI50 [4]: > 100 µM (inactive) | GI50 [5]: > 100 µM (inactive) | GI50 [6]: > 100 µM (inactive) | GI50 [7]: 55.6 µM (inactive) | GI50 [8]: > 100 µM (inactive) | GI50 [9]: > 100 µM (inactive) | GI50 [10]: > 100 µM (inactive) | GI50 [11]: > 100 µM (inactive) | GI50 [12]: > 100 µM (inactive) | GI50 [13]: > 100 µM | GI50 [14]: > 100 µM (inactive) | GI50 [15]: > 100 µM (inactive) | GI50 [16]: 81.3 µM (inactive) | GI50 [17]: 42.5 µM (inactive)

COc1ccc(COCC[C@H](C)OC2OC(CO[Si](C)(C)C(C)(C)C)C(OC(=O)CCCN=[N+]=[N-])C(OC(=O)CCCN=[N+]=[N-])C2OC(=O)CCCN=[N+]=[N-])cc1 (stereo partly specified)
GI50 [1]: 88.1 µM (inactive) | GI50 [2]: 10.6 µM (inactive) | GI50 [4]: 31.8 µM (inactive) | GI50 [5]: 19.1 µM (inactive) | GI50 [6]: 28.6 µM (inactive) | GI50 [7]: 14.2 µM (inactive) | GI50 [8]: 26.5 µM (inactive) | GI50 [9]: > 100 µM (inactive) | GI50 [10]: 33.2 µM (inactive) | GI50 [11]: 19.7 µM (inactive) | GI50 [18]: 17.5 µM (inactive) | GI50 [19]: > 100 µM (inactive) | GI50 [13]: 28.4 µM | GI50 [14]: > 100 µM (inactive) | GI50 [15]: > 100 µM (inactive) | GI50 [16]: 89.3 µM (inactive) | GI50 [17]: 97.5 µM (inactive)

OCC(O)COCn1cc(Cn2ncc3c(NCc4ccccc4)ncnc32)nn1 (stereo unspecified)
GI50 [1]: > 100 µM (inactive) | GI50 [2]: > 100 µM (inactive) | GI50 [3]: > 100 µM (inactive) | GI50 [4]: > 100 µM (inactive) | GI50 [5]: > 100 µM (inactive) | GI50 [6]: > 100 µM (inactive) | GI50 [8]: > 100 µM (inactive) | GI50 [9]: > 100 µM (inactive) | GI50 [10]: > 100 µM (inactive) | GI50 [11]: > 100 µM (inactive) | GI50 [12]: > 100 µM (inactive) | GI50 [18]: > 100 µM (inactive) | GI50 [13]: > 100 µM | GI50 [14]: > 100 µM (inactive) | GI50 [15]: > 100 µM (inactive) | GI50 [16]: > 100 µM (inactive) | GI50 [17]: > 100 µM (inactive)

COc1ccc(/C=C2\CCCc3ccccc3C2=O)cc1
GI50 [1]: 0.158 µM (active) | GI50 [2]: 0.279 µM (active) | GI50 [3]: 0.452 µM (active) | GI50 [20]: 0.33 µM (active) | GI50 [4]: 0.122 µM (active) | GI50 [5]: 0.0416 µM (active) | GI50 [6]: 0.321 µM (active) | GI50 [7]: 0.0649 µM (active) | GI50 [8]: 3.13 µM (inactive) | GI50 [10]: 0.39 µM (active) | GI50 [11]: 0.228 µM (active) | GI50 [12]: 1.63 µM (inactive) | GI50 [18]: 0.578 µM (active) | GI50 [19]: 0.0174 µM (active) | GI50 [13]: 0.0723 µM | GI50 [14]: 0.197 µM (active) | GI50 [15]: 0.378 µM (active) | GI50 [16]: 0.026 µM (active) | GI50 [17]: 0.187 µM (active)

O=[N+]([O-])c1ccccc1S(=O)(=O)c1cc(O)cc2c1NCCC2
GI50 [1]: 18.7 µM (inactive) | GI50 [2]: 3.47 µM (inactive) | GI50 [20]: 2.68 µM (inactive) | GI50 [4]: 19.9 µM (inactive) | GI50 [5]: 21.4 µM (inactive) | GI50 [6]: 14.7 µM (inactive) | GI50 [7]: 14.5 µM (inactive) | GI50 [8]: 13.5 µM (inactive) | GI50 [9]: 23.7 µM (inactive) | GI50 [10]: 16.7 µM (inactive) | GI50 [11]: 11.8 µM (inactive) | GI50 [12]: 4.23 µM (inactive) | GI50 [18]: 2.15 µM (inactive) | GI50 [19]: 17.4 µM (inactive) | GI50 [13]: 19.6 µM | GI50 [14]: 29.8 µM (inactive) | GI50 [15]: 8.41 µM (inactive) | GI50 [16]: 25.3 µM (inactive) | GI50 [17]: 21 µM (inactive)

c1ccc(C2=NCCc3cc4c(cc32)OCO4)cc1
GI50 [1]: > 100 µM (inactive) | GI50 [3]: > 100 µM (inactive) | GI50 [4]: > 100 µM (inactive) | GI50 [5]: > 100 µM (inactive) | GI50 [6]: > 100 µM (inactive) | GI50 [8]: > 100 µM (inactive) | GI50 [9]: > 100 µM (inactive) | GI50 [10]: > 100 µM (inactive) | GI50 [11]: > 100 µM (inactive) | GI50 [18]: > 10 µM (inactive) | GI50 [19]: > 100 µM (inactive) | GI50 [14]: > 100 µM (inactive) | GI50 [15]: > 100 µM (inactive) | GI50 [16]: > 100 µM (inactive) | GI50 [17]: > 100 µM (inactive)

O=C1CSC(c2c[nH]c3ccccc23)N1c1ccc(Cl)cc1Cl (stereo unspecified)
GI50 [1]: > 100 µM (inactive) | GI50 [2]: > 100 µM (inactive) | GI50 [3]: > 100 µM (inactive) | GI50 [20]: > 100 µM (inactive) | GI50 [4]: > 100 µM (inactive) | GI50 [5]: > 100 µM (inactive) | GI50 [6]: > 100 µM (inactive) | GI50 [7]: 0.865 µM (active) | GI50 [8]: > 100 µM (inactive) | GI50 [10]: > 100 µM (inactive) | GI50 [11]: > 100 µM (inactive) | GI50 [12]: > 100 µM (inactive) | GI50 [18]: > 100 µM (inactive) | GI50 [13]: > 100 µM | GI50 [14]: > 100 µM (inactive) | GI50 [15]: > 100 µM (inactive) | GI50 [16]: > 100 µM (inactive) | GI50 [17]: > 100 µM (inactive)

COc1ccc2c(-c3ccc(OCCN(C)C)cc3)c(Oc3ccc(Cl)cc3)c(=O)oc2c1
GI50 [1]: 3.66 µM (inactive) | GI50 [3]: 2 µM (inactive) | GI50 [20]: 2.54 µM (inactive) | GI50 [4]: 14.5 µM (inactive) | GI50 [5]: 9.16 µM (inactive) | GI50 [6]: 4.98 µM (inactive) | GI50 [7]: 7.19 µM (inactive) | GI50 [8]: 2.05 µM (inactive) | GI50 [9]: 5 µM (inactive) | GI50 [10]: 11.5 µM (inactive) | GI50 [11]: 8.36 µM (inactive) | GI50 [12]: 2.13 µM (inactive) | GI50 [18]: 4.42 µM (inactive) | GI50 [19]: 1.74 µM (inactive) | GI50 [13]: 3.35 µM | GI50 [14]: 4.48 µM (inactive) | GI50 [15]: 5.41 µM (inactive) | GI50 [16]: 2.12 µM (inactive) | GI50 [17]: 4.21 µM (inactive)
